Data from US10072023B2, “Diarylethene compounds and uses thereof” (SWITCH MATERIALS, INC., priority 2011, dated 2018).

Legend:
[1] = Absorbance at photostationary state (PSS) under simulated sunlight or 365 nm light; type: physicochemical; set-up: λ max: unit not given here; settings: for Absorbance at PSS, 365 nm: 365 nm light source; for Absorbance at PSS, 365 nm / Absorbance at PSS, full / Absorbance at PSS, +UV / λ max: 2.0×10^−5 M in triglyme; for sensitivity index: ratio of PSS under 365 nm light to PSS under full spectrum light (without UV blocking film); for Absorbance at PSS, full: simulated sunlight (QSUN solar simulator), no UV blocking film; for Absorbance at PSS, +UV: simulated sunlight with UV blocking film (cutoff 370 nm); for λ max: wavelength of maximum absorbance in the visible range, ring-closed isoform
Procedure, shortened: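 Compounds at 2.0×10^−5 M in triglyme, photofaded with visible light, then irradiated with simulated sunlight (xenon arc) or 365 nm light until the UV/Vis spectrum stabilized. Also irradiated through a UV-blocking film (370 nm cutoff); sensitivity index is PSS under 365 nm divided by PSS under full spectrum.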

[2] = Solubility in indicated solvent; type: physicochemical; settings: % wt soluble in triglyme
From the text: A compound with greater solubility allows for a formulation or material with a greater concentration of coloured molecule to be incorporated into a composition. This may allow for increasing the contrast ratio for a compound with a lesser absorbance at PSS. Inclusion of a solubilizing group in a compound according to various embodiments of the invention may increase solubility. Examples of solubilizing groups may include alkoxy or siloxy groups.

Compound: FC(F)(F)c1ccc(-c2cc(C3=C(c4cc(-c5ccc(C(F)(F)F)cc5)sc4-c4ccc(C(F)(F)F)cc4)C(F)(F)C(F)(F)C3(F)F)c(-c3ccc(C(F)(F)F)cc3)s2)cc1 [S044, 3,3′-(perfluorocyclopent-1-ene-1,2-diyl)bis(2,5-bis(4-(trifluoromethyl)phenyl)thiophene)]
- Absorbance at PSS, 365 nm [1]: 0.222
- sensitivity index [1]: 3.58
- Absorbance at PSS, full [1]: 0.062
- Absorbance at PSS, +UV [1]: 0.027
- λ max [1]: 605
- Solubility [2]: 1 % wt

Compound: c1ccc(-c2nc(-c3cc(-c4cccs4)sc3-c3cccs3)c(-c3cc(-c4cccs4)sc3-c3cccs3)s2)cc1 [S075]
- Absorbance at PSS, 365 nm [1]: 0.302
- sensitivity index [1]: 3.82
- Absorbance at PSS, full [1]: 0.079
- Absorbance at PSS, +UV [1]: 0.031
- λ max [1]: 670
- Solubility [2]: 1 % wt

Compound: Cc1cc(-c2sc(C)c(C)c2C2=C(c3c(-c4cc(C)c(C)s4)sc(C)c3C)C(F)(F)C(F)(F)C2(F)F)sc1C [S039, 3,3′-(perfluorocyclopent-1-ene-1,2-diyl)bis(4,4′,5,5′-tetramethyl-2,2′-bithiophene)]
- Absorbance at PSS, 365 nm [1]: 0.372
- sensitivity index [1]: 7.75
- Absorbance at PSS, full [1]: 0.048
- Absorbance at PSS, +UV [1]: 0.028
- λ max [1]: 570
- Solubility [2]: 2 % wt

Compound: CC(C)(C)c1ccc(-c2sc(-c3ccc(Cl)cc3)cc2C2=C(c3cc(-c4ccc(Cl)cc4)sc3-c3ccc(C(C)(C)C)cc3)C(F)(F)C(F)(F)C2(F)F)cc1 [S060]
- Absorbance at PSS, 365 nm [1]: 0.22
- sensitivity index [1]: 2.06
- Absorbance at PSS, full [1]: 0.107
- Absorbance at PSS, +UV [1]: 0.038
- λ max [1]: 615
- Solubility [2]: 1 % wt

Compound: FC1(F)C(c2cc(-c3ccccc3)sc2-c2ccccc2)=C(c2cc(-c3ccc(Cl)cc3)sc2-c2ccccc2)C(F)(F)C1(F)F [S006, 5-(4-chlorophenyl)-3-(2-(2,5-diphenylthiophen-3-yl)-3,3,4,4,5,5-hexafluorocyclopent-1-en-1-yl)-2-phenylthiophene]
- Absorbance at PSS, 365 nm [1]: 0.141
- sensitivity index [1]: 3.71
- Absorbance at PSS, full [1]: 0.038
- Absorbance at PSS, +UV [1]: 0.013
- λ max [1]: 610
- Solubility [2]: 3 % wt

Compound: COCCOCCOCCOC(C)(C)c1ccc(-c2cc(C3=C(c4cc(-c5ccc(C(C)(C)OCCOCCOCCOC)cc5)sc4-c4ccc(C(C)(C)C)cc4)C(F)(F)C(F)(F)C3(F)F)c(-c3ccc(C(C)(C)C)cc3)s2)cc1 [S068, 12,12′-((4,4′-(perfluorocyclopent-1-ene-1,2-diyl)bis(5-(4-(tert-butyl)phenyl)thiophene-4,2-diyl))bis(4,1-phenylene))bis(12-methyl-2,5,8,11-tetraoxatridecane)]
- Absorbance at PSS, 365 nm [1]: 0.239
- sensitivity index [1]: 2.15
- Absorbance at PSS, full [1]: 0.111
- Absorbance at PSS, +UV [1]: 0.051
- λ max [1]: 615
- Solubility [2]: >20 % wt

Compound: CCOCCOCCOCCOc1ccc(-c2sc(-c3ccc(C(C)(C)C)s3)cc2C2=C(c3cc(-c4ccc(C(C)(C)C)s4)sc3-c3ccc(OCCOCCOCCOCC)cc3)C(F)(F)C(F)(F)C2(F)F)cc1 [S109, 4,4″-(perfluorocyclopent-1-ene-1,2-diyl)bis(5′-(tert-butyl)-5-(4-(2-(2-(2-ethoxyethoxy)ethoxy)ethoxy)phenyl)-2,2′-bithiophene)]
- Absorbance at PSS, 365 nm [1]: 0.367
- sensitivity index [1]: 1.24
- Absorbance at PSS, full [1]: 0.296
- Absorbance at PSS, +UV [1]: 0.217
- λ max [1]: 645
- Solubility [2]: >25 % wt

Compound: CC(C)(C)c1ccc(-c2cc(C3=C(c4cc(-c5ccc(C(C)(C)C)s5)sc4-c4ccc(O[Si](O[Si](C)(C)C)(O[Si](C)(C)C)O[Si](C)(C)C)cc4)C(F)(F)C(F)(F)C3(F)F)c(-c3ccc(O[Si](O[Si](C)(C)C)(O[Si](C)(C)C)O[Si](C)(C)C)cc3)s2)s1 [S118]
- Absorbance at PSS, 365 nm [1]: 0.34
- sensitivity index [1]: 1.52
- Absorbance at PSS, full [1]: 0.223
- Absorbance at PSS, +UV [1]: 0.124
- λ max [1]: 648

Compound: CC(C)(C)c1ccc(-c2cc(C3=C(c4cc(-c5sc(C(C)(C)C)cc5C(=O)O)sc4-c4ccc(C(=O)O)s4)C(F)(F)C(F)(F)C3(F)F)c(-c3ccc(C(=O)O)s3)s2)s1 [S124]
- Absorbance at PSS, 365 nm [1]: 0.344
- sensitivity index [1]: 1.38
- Absorbance at PSS, full [1]: 0.249
- Absorbance at PSS, +UV [1]: 0.225
- λ max [1]: 649

Compound: FC1(F)C(c2cc(-c3ccc(Cl)cc3)sc2-c2ccc(Cl)cc2)=C(c2cc(-c3ccc(Cl)cc3)sc2-c2ccc(Cl)cc2)C(F)(F)C1(F)F [S056, 3,3′-(perfluorocyclopent-1-ene-1,2-diyl)bis(2,5-bis(4-chlorophenyl)thiophene)]
- Absorbance at PSS, 365 nm [1]: 0.194
- sensitivity index [1]: 2.73
- Absorbance at PSS, full [1]: 0.071
- Absorbance at PSS, +UV [1]: 0.026
- λ max [1]: 610

Compound: CC(C)(C)c1ccc(-c2cc(C3=C(c4cc(-c5ccc(C(C)(C)C)s5)sc4-c4ccc(OCCCCC#N)cc4)C(F)(F)C(F)(F)C3(F)F)c(-c3ccc(OCCCCC#N)cc3)s2)s1 [S139, 5,5′-(((4,4″-(perfluorocyclopent-1-ene-1,2-diyl)bis(5′-(tert-butyl)-[2″,2″′-bithiophene]-5″,4-diyl))bis(4,1phenylene))bis(oxy))dipentanenitrile]
- Absorbance at PSS, 365 nm [1]: 0.403
- Absorbance at PSS, full [1]: 0.322
- Absorbance at PSS, +UV [1]: 0.216

Compound: COc1ccc(-c2sc(-c3ccc(OCCOc4ccc(N(c5ccc(Cl)cc5)c5ccc(Cl)cc5)cc4)cc3)cc2C2=C(c3cc(-c4ccc(OCCOc5ccc(N(c6ccc(Cl)cc6)c6ccc(Cl)cc6)cc5)cc4)sc3-c3ccc(OC)cc3)C(F)(F)C(F)(F)C2(F)F)cc1 [S090, 4,4′-(((((4,4′-(perfluorocyclopent-1-ene-1,2-diyl)bis(5-(4-methoxyphenyl)thiophene-4,2-diyl))bis(4,1-phenylene))bis(oxy))bis(ethane-2,1-diyl))bis(oxy))bis(N,N-bis(4-chlorophenyl)aniline)]
- Absorbance at PSS, 365 nm [1]: 0.183
- sensitivity index [1]: 1.71
- Absorbance at PSS, full [1]: 0.107
- Absorbance at PSS, +UV [1]: 0.058
- λ max [1]: 624

Compound: COc1ccc(-c2sc(-c3ccc(/C=C/C=C/c4ccccc4)cc3)cc2C2=C(c3cc(-c4ccc(/C=C/C=C/c5ccccc5)cc4)sc3-c3ccc(OC)cc3)C(F)(F)C(F)(F)C2(F)F)cc1 [S089, 3,3′-(perfluorocyclopent-1-ene-1,2-diyl)bis(2-(4-methoxyphenyl)-5-(4-((1E,3E)-4-phenylbuta-1,3-dien-1-yl)phenyl)thiophene)]
- Absorbance at PSS, 365 nm [1]: 0.564
- sensitivity index [1]: 4.12
- Absorbance at PSS, full [1]: 0.137
- Absorbance at PSS, +UV [1]: 0.126
- λ max [1]: 656

Compound: CC(C)(C)c1ccc(-c2cc(C3=C(c4cc(-c5ccc(C(C)(C)C)s5)sc4-c4ccc(N5CCOCC5)cc4)C(F)(F)C(F)(F)C3(F)F)c(-c3ccc(N4CCOCC4)cc3)s2)s1 [S112, 4,4′-((4,4″-(perfluorocyclopent-1-ene-1,2-diyl)bis(5′-(tert-butyl)-[2,2′-bithiophene]-5,4-diyl))bis(4,1-phenylene))dimorpholine]
- Absorbance at PSS, 365 nm [1]: 0.318
- sensitivity index [1]: 1.14
- Absorbance at PSS, full [1]: 0.278
- Absorbance at PSS, +UV [1]: 0.246
- λ max [1]: 663
